Source: US4970301A, “2-(piperazinyl)-2-oxoethylene-substituted flavonoid compounds” (Adir et Cie, priority 1987, dated 1990)

Experiments:
phosphodiesterase = test: Inhibition of the degradation of cyclic AMP by phosphodiesterase (spectrophotometry); assay type: biochemical; conditions: rat brain enzyme extract, 25° C., 265 nm
Description: Inhibition of the Degredation Reaction of Cyclic AMP by Phosohodiesterase
The enzyme extract necessary for this study is prepared from rat brain.
After decapitation, the brain is removed, weighed and frozen for half an hour at -70° C. The preparation, maintained in ice, is then diluted and homogenized in 50% glycerol containing 50 mmol tris(hydroxymethyl)aminomethane and 50 mmol magnesium sulfate, in the proportion of 5 ml per gram of brain. The preparation is then centrifuged. The supernatent is distributed in aliquots and stored at 4° C.
In the study, the enzyme extract is incubated :n the presence of cyclic AMP (Boehringer® Ref. 102300), alkaline phosphatase (Boehringer® Ref 108138), adenosine deaminase (Boehringer® Ref. 102091) and increasing amounts of the compounds of the invention. The kinetics of the degredation of cyclic AMP is followed by spectrophotometry at 25° C. A mixture devoid of alkaline phosphatase and adenosine deaminase is used as blank. The measurement of the optical density is carried out at 265 nm. The concentration of the compounds of the invention leading to a 50% inhibition of the enzymatic reaction (IC50) is calculated. Two reference substances, diosmine and theoprylline, are studied according to the same methodology.

[1] = system: polymorphonuclear leukocytes; test: Oxygen-containing free radical production by polymorphonuclear leukocytes (chemiluminescence); assay type: cell-based; conditions: Leukocyte; rat polymorphonuclear leukocytes, Zymosan, Luminol; read-out: IC50, inhibition of the chemiluminescence reaction (free radical production)
Description: Evaluation of the Pharmacodynamic Activity with Respect to Oxygen-Containing Free Radicals Produced by Polymorphonuclear Leukocytes The possible pharmacodynamic activity of the compounds of the invention with respect to the production of free radicals by polymorphonuclear leukocytes was investigated in vitro. The cellular model used was rat polymorphonuclear leukocytes. This model is capable of producing free radicals in a manner that can be monitored. The production of free radicals was quantified by measurement of the chemiluminescence, which is proportional to their quantity. Quantities of 2×10^6 polymorphonuclear leukocyte cells, isolated from heparinized rat blood, are mixed with solutions of increasing concentrations of the compounds of the invention (2×10^-4 M to 2×10^-8 M). Appropriate amounts of Hanks' solution, Zymosan® (Sigma 24250) and Luminol® (Merck 82007) are then added successively. The solutions are kept shielded from the light, and transferred rapidly to a liquid scintillation counter. In the "blank" sample, the polymorphonuclear leukocytes are replaced by an equivalent volume of Hanks' solution, and in the "control" sample, the solution of "test compounds" is replaced by a Hanks' solution. The same study was carried out with a reference product: diosmine. The percentage inhibition of free radical production was calculated by the following formula: [formula] Cl control: Maximum chemiluminescence of "control" sample Cl compounds: Maximum chemiluminescence of "test compounds" sample Cl blank: Maximum chemiluminescence of "blank" sample […]

Solubility in water = assay type: physicochemical; conditions: addition salt
[2] = system: Croton Oil-Induced Edema of the Mouse's Ear; test: Croton oil-induced edema of the mouse's ear; assay type: in vivo, CD1 (Charles River) male mice; conditions: single dose, sacrificed six hours after irritation
Description: Croton Oil-Induced Edema of the Mouse's Ear This test consists in inflaming the mouse's ears with an irritant solution based on croton oil, and in testing the preventive effect of the test compounds administered per os. The tests were carried out on batches of at least 8 CD1 (Charles River) male mice of average weight 18-20 g. The compounds of the invention were administered by gavage with a tube, in a single dose, on the basis of 0.1 ml of liquid per 10 g of mouse. The mouse was deprived of food, but not of drink, 2 hours before the gavage and until after the irritation. Thirty minutes after the gavage, each mouse was lightly anesthetized with ether. 10 μl of the irritant solution were then deposited by means of an Eppendorf pipette on the cutaneous surface of the pinna of the right ear; the left ear, which was not subjected to any treatment, acted as control. The animal was then replaced in the cage and sacrificed six hours later. The ears were sectioned along the cartilagineous edge and weighed immediately. To assess the activity of the product, the mean increase in weight of the ears of the treated batches (m) is compared by Student's test with that of the untreated control batch (mc).

SMILES | IC50 (phosphodiesterase) | solubility (Solubility in water) | also measured
COc1ccc(-c2cc(=O)c3c(O)cc(O[C@@H]4O[C@H](CO[C@@H]5O[C@@H](C)[C@H](O)[C@@H](O)[C@H]5O)[C@@H](O)[C@H](O)[C@H]4O)cc3o2)cc1O [DIOSMINE, diosmine, reference compound] | 100 µM | – | IC50 [1]: 40 µM
CCOC(=O)COc1cc(-c2cc(=O)c3c(O)cc(OCC(=O)N4CCN(Cc5ccc(OC)c(OC)c5OC)CC4)cc3o2)ccc1OC [Example 1 (monophosphate), 7-[2-{4-[(2,3,4-trimethoxyphenyl)methyl]-1-piperazinyl}-2-oxoethoxy-5-hydroxy-4'-methoxy-3'-(2-ethoxy-2-oxoethoxy)flavone monophosphate] | – | 158 mg/mL | –
CCOC(=O)COc1cc(OCC(=O)N2CCN(Cc3ccc(OC)c(OC)c3OC)CC2)c2c(=O)cc(-c3ccc(OC)c(OCC(=O)OCC)c3)oc2c1.Cl [Example 2 (hydrochloride), 5-[2-{4-[(2,3,4-Trimethoxyphenyl)methyl]-1-piperazinyl}-2-oxoethoxy]-7,3'-bis(2-ethoxy-2-oxoethoxy)-4'-methoxyflavone hydrochloride] | – | 163 mg/mL | I (percentage inhibition of ear edema) ([2]; 166 mg.kg^-1 per os, p < 0.05): -34%
CCOC(=O)COc1cc(OCC(=O)N2CCN(Cc3ccc(OC)c(OC)c3OC)CC2)c2c(=O)cc(-c3ccc(OC)c(OCC(=O)OCC)c3)oc2c1 [Example 2, 5-[2-{4-[(2,3,4-Trimethoxyphenyl)methyl]-1-piperazinyl}-2-oxoethoxy-]-7,3'-bis(2-ethoxy-2-oxoethoxy)-4'-methoxyflavone] | 20 µM | – | IC50 [1]: 4 µM
COc1ccc(-c2cc(=O)c3c(O)cc(O[C@@H]4O[C@H](CO[C@@H]5O[C@@H](C)[C@H](O)[C@@H](O)[C@H]5O)[C@@H](O)[C@H](O)[C@H]4O)cc3o2)cc1OCC(=O)N1CCN(Cc2ccc(OC)c(OC)c2OC)CC1 [Example 3 (hemitartrate), 3'-[2-{4-[(2,3,4-Trimethoxyphenyl)methyl]-1-piperazinyl}-2-oxoethoxy]-4'-methoxy-5-hydroxyflavone 7-chamnoglucoside hemitartrate] | – | 200 mg/mL | I (percentage inhibition of ear edema) ([2]; 200 mg.kg^-1 per os, p < 0.01): -26%
COc1ccc(-c2cc(=O)c3c(O)cc(O[C@@H]4O[C@H](CO[C@@H]5O[C@@H](C)[C@H](O)[C@@H](O)[C@H]5O)[C@@H](O)[C@H](O)[C@H]4O)cc3o2)cc1OCC(=O)N1CCN(Cc2ccc(OC)c(OC)c2OC)CC1 [Example 3, 3'-[2-{4-[(2,3,4-Trimethoxyphenyl)methyl]-1-piperazinyl}-2-oxoethoxy]-4'-methoxy-5-hydroxyflavone 7-chamnoglucoside] | 25 µM | – | –
COc1ccc(-c2cc(=O)c3c(O)cc(O[C@@H]4O[C@H](CO)[C@@H](O)[C@H](O)[C@H]4O)cc3o2)cc1OCC(=O)N1CCN(Cc2ccc(OC)c(OC)c2OC)CC1 [Example 4 (monophosphate), 3'-[2-{4-[(2,3,4-Trimethoxyphenyl)methyl]-1-piperazinyl}-2-oxoethoxy]-4'-methoxy-5-hydroxyflavone 7β-glucoside monophosphate] | – | 43 mg/mL | I (percentage inhibition of ear edema) ([2]; 173 mg.kg^-1 per os, p < 0.05): -28%
CCOC(=O)COc1cc(O)c2c(=O)cc(-c3ccc(OC)c(OCC(=O)N4CCN(Cc5ccc(OC)c(OC)c5OC)CC4)c3)oc2c1 [Example 6, 3'-[2-{4-[(2,3,4-Trimethoxyphenyl)methyl]-1-piperazinyl}-2-oxoethoxy]-4'-methoxy-5-hydroxy-7-(2-ethoxy-2-oxoethoxy)flavone] | – | – | IC50 [1]: 10 µM
Cn1c(=O)c2[nH]cnc2n(C)c1=O [THEOPHYLLINE, theophylline, reference compound] | 1000 µM | – | –

Now from value to compound, other results behind:

IC50 (phosphodiesterase) | solubility (Solubility in water) | SMILES | also measured
– | 35 mg/mL | COc1ccc(-c2cc(=O)c3c(O)cc(O)cc3o2)cc1OCC(=O)N1CCN(Cc2ccc(OC)c(OC)c2OC)CC1 [Example 5 (methanesulfonate), 3'-[2-{4-[(2,3,4-trimethoxyphenyl)methyl]-1-piperazinyl}-2-oxoethoxy]-4'-methoxy-5,7-dihydroxyflavone] | –
– | 39.5 mg/mL | CCOC(=O)COc1cc(O)c2c(=O)cc(-c3ccc(OC)c(OCC(=O)N4CCN(Cc5ccc(OC)c(OC)c5OC)CC4)c3)oc2c1 [Example 6 (monophosphate), 3'[2-{4-[(2,3,4-Trimethoxyphenyl)methyl]-1-piperazinyl}-2-oxoethoxy]-4'-methoxy-5-hydroxy-7-(2-ethoxy-2-oxoethyoxy)flavone phosphate] | –
– | 221 mg/mL | COc1ccc(-c2cc(=O)c3c(O)cc(OCC(=O)N4CCN(Cc5ccc(OC)c(OC)c5OC)CC4)cc3o2)cc1OCC(=O)N1CCN(Cc2ccc(OC)c(OC)c2OC)CC1 [Example 7 (biphosphate), 7,3'-Bis[2-{4-[(2,3,4-trimethoxyphenyl)methyl]-1-piperazinyl}-2-oxoethoxy]-5-hydroxy-4'-methoxyflavone biphosphate] | –
10 µM | – | COc1ccc(-c2cc(=O)c3c(O)cc(OCC(=O)N4CCN(Cc5ccc(OC)c(OC)c5OC)CC4)cc3o2)cc1OCC(=O)N1CCN(Cc2ccc(OC)c(OC)c2OC)CC1 [Example 7, 7,3'-Bis[2-{4-[(2,3,4-trimethoxyphenyl)methyl]-1-piperazinyl}-2-oxoethoxy]-5-hydroxy-4'-methoxyflavone] | –
– | 1.4 mg/mL | COc1ccc(C2CC(=O)c3c(O)cc(OCC(=O)N4CCN(Cc5ccc(OC)c(OC)c5OC)CC4)cc3O2)cc1O.CS(=O)(=O)O (stereo not drawn) [Example 8 (methanesulfonate), 7-[2-{4-[(2,3,4-Trimethoxyphenyl)methyl]-1-piperazinyl}-2-oxoethoxy]-5,3'-dihydroxy-4'-methoxyflavanone methanesulfonate] | –
57 µM | – | COc1ccc(C2CC(=O)c3c(O)cc(OCC(=O)N4CCN(Cc5ccc(OC)c(OC)c5OC)CC4)cc3O2)cc1O (stereo not drawn) [Example 8, 7-[2-{4-[(2,3,4-Trimethoxyphenyl)methyl]-1-piperazinyl}-2-oxoethoxy]-5,3'-dihydroxy-4'-methoxyflavanone] | IC50 [1]: 15 µM
